In PMC12668308, “A Novel Antimalarial Agent that Inhibits Protein Synthesis in Plasmodium falciparum” (Angewandte Chemie (International Ed. in English), 2025):
Where two headings read alike, the source gives them in different places.

What was measured:
[1] = test system: NF54/iGP1_RE9H^ulg8 stage V gametocytes; assay: Dose-response assay on gametocytes, MitoTracker-based readout; type: cell-based, Plasmodium falciparum
From the text: Compound 31 was also found to be active against the sexual stage of P. falciparum using the MitoTracker‐based readout. This readout is based on quantifying MitoTracker‐based gametocyte viability as recently described.^[ [7] ^] Briefly, high content imaging of MitoTracker‐ and Hoechst‐stained cells and automated image analysis using the MetaXpress software was used to determine the number of viable gametocytes based on mitochondrial activity and cellular shape.
Sexual commitment was induced in the NF54/iGP1_RE9H^ulg8 parasite line as described in ^[18,^52]. Synchronous ring stage cultures at 2-3% parasitemia (8-16 hpi) were grown for 48 hours in a culture medium lacking D-(+)-glucosamine hydrochloride (GlcN) and containing 1.25 µM Shield-1 to induce GDV1-GFP-DD expression. The induction medium was replaced with standard culture medium containing 50 mM N-acetyl-glucosamine (GlcNAc) for six consecutive days.) to selectively kill asexual parasites.^[53^,54^] Gametocytes were maintained in standard culture medium from day 7 onwards. During the first seven days of gametocyte development, the culture medium was exchanged daily and every second day subsequently. Visual inspection of Hemacolor-stained thin blood smears with a 100x immersion oil objective (total magnification = 1000x) was performed to assess gametocytemia.
Dose response assays were performed in biological triplicates, each in technical duplicate, as described in ^[18, ^55]. Synchronous NF54/iGP1_RE9H^ulg8 gametocyte cultures were resuspended at ~2% gametocytemia in an assay medium at 3% haematocrit. […] MitoTracker-based gametocyte viability was quantified using a modified version of published protocols.^[56^,57^] […] After imaging two technical replicates, the results were averaged and normalized to the plateau of sub-lethal compound concentrations using the “first mean in each data set” function and IC50 values were calculated using nonlinear, four parameter (variable slope) curve fitting in GraphPad Prism (version 8.3.0).

3D7^WT = assay: [3H]-hypoxanthine incorporation assay; type: cell-based; details: Plasmodium falciparum, 3D7; 72-h assay; mean±s.d.; read-out: 3D7^WT IC50
Experimental: ^[a] 72-h [^3H] hypoxanthhine incorporation assay; Data is expressed as mean±s.d.. The assay was performed in three independent biological experiments, each in biological duplicates.
P. falciparum asexual blood stage parasites were cultured in human red blood cells (RBC, Blutspende SRK, Zurich) at a hematocrit of 5% in RPMI 1640 medium. The RPMI 1640 medium (ThermoFisher Scientific #51800−043) was supplemented with the following: 24 mM NaHCO3 (pH 7.3, Sigma-Aldrich #31437−500G-R), 25 mM Hepes (Sigma-Aldrich #H4034−500G), 0.36 mM hypoxanthine (Sigma-Aldrich # H9377−25G), 100 µg mL^-1 neomycin (Sigma-Aldrich #N6386−100G) and 0.5% Albumax II (Thermo Fisher #11021−045). Additionally, 2 mM choline chloride (279 mg/L, Sigma-Aldrich #C7527−100G) was added to the culture to block the induction of sexual commitment as described. ^[31^] The RPMI 1640 medium and components were dissolved in water (Milli-Q purified), stirred for at least 3 h, and then sterile filtered (0.22 μm pore size) with a bottle top filter (Corning # 431118). Parasite cultures were maintained in an atmosphere of 3% O2, 4% CO2, and 93% N2 in air-tight chambers at 37 °C. The [^3H]-hypoxanthine incorporation assay was used to test compound activity in the specific parasite lines as described.^[32^] Briefly, compounds were dissolved in DMSO (10 mM) and diluted in a hypoxanthine-free culture medium. A limiting dilution was performed over a 64-fold range (6-step twofold dilution) in a 96-well plate in duplicates. For every starting concentration, a limiting dilution was performed over a 64-fold range (6-step twofold dilution) in a 96-well plate in two biological duplicates. Parasites were added at 100 µL to each well containing the compound to obtain a final parasitemia of 0.3% and haematocrit of 1.25%. The plates were incubated for 48 h before 0.25 µCi of [^3H]-hypoxanthine was added per well for an additional 24 h. Parasites were harvested on a glass-fiber filter with a Microbeta FilterMate cell harvester (Perkin Elmer, Waltham, USA) and radioactivity was counted using a MicroBeta2 liquid scintillation counter (Perkin Elmer, Waltham, US). The results were recorded, processed by subtraction of the mean background signal obtained from the uninfected RBC controls and expressed as percentage of untreated controls. The fifty percent inhibitory concentration (IC50) was calculated by using nonlinear, four parameter (variable slope) curve fitting as described ^[33^] after importing into GraphPad Prism (version 8.3.0).

CN1CCN(Cc2ccc(O)c(NC(=O)c3cccc(Oc4cc(C(F)(F)F)ccn4)c3)c2)CC1 [Compound 31, N-(2-hydroxy-5-((4-methylpiperazin-1-yl)methyl)phenyl)-3-((4-(trifluoromethyl)pyridin-2-yl)oxy)benzamide]
IC50 ([1]; Plasmodium falciparum, NF54, 72 h, read-out: IC50 mature (stage V) gametocytes, 72 h exposure, MitoTracker readout, N = 3): 354 nM | IC50 ([1]; read-out: IC50 mature (stage V) gametocytes, 72 h exposure, MitoTracker readout, N = 3): < 500 nM | fold reduction in activity against the sexual stages compared to the asexual stage ([1]; stage V gametocytes vs NF54 asexual): 91 fold | IC50 (3D7^WT): 2.4 ± 0.3 nM
